# Source: patent US6548544B1, “Method of treatment of priapism without raising systemic blood pressure” (The National University of Singapore, priority 1999, dated 2003)
# How the values were obtained:
# cavernosum = assay: Other prostaglandins tested using the above protocol (contraction of the cavernosum); assay type: in vivo; details: testing using the above protocol "will demonstrate"
# [1] = test system: Pharmacologically Induced Prolonged Erection (Pipe); assay: Effect on papaverine- and phenoxybenzamine-induced prolonged erection (PIPE), penile length, baboons; assay type: in vivo, baboon; details: for increase in penile length: intracavernous papaverine (40 mg) or phenoxybenzamine (3 mg), within 10 min after administration
# Experimental: Six male baboons weighing between 8 kg and 12 kg were used for the experiment. The animals were sedated with ketamine and anaesthetised with intravenous pentobarbitone injected through an indwelling venous catheter. Drugs were injected into the right corpora cavornosa at the mid-third of the shaft using a 29G needle and 1 ml syringe. Blood pressure was monitored through a cannulated femoral artery connected to the transducer. A measuring tape was used to measure penile length visually from a marked point at the base of the penis to the tip of urethral orifice. Changes in penile length were recorded for a period of 100 min after injection.
# Intracavernous injection of papaverine (40 mg) or phenoxybenzamine (3 mg) which produced maximal penile length within 20 and 40 min were repeated one week later and prostaglandin A2 was given at the peak time of the turgidity.
# In baboons, intracavernous injection of papaverine (40 mg) or phenoxybenzamine (3 mg) produced a 130% increase in penile length within […] after administration (Table 1). This increase in penile length lasted for more than 100 min. This was repeated one week later and when prostaglandin A2 was injected intracavernosally at the maximum rigidity 20 min after the drug administration, the latter produced a marked reduction in penile length and within 40 min of injection, the penile size reduced to the original state of rugosity (Table 1). The fall in systemic blood pressure produced by prostaglandin A2 ranged from 8 to 16 mmHg. Each value reported in Table 1 represents the mean of six experiments.
smiles,measurement,setting,value
CCCCC[C@H](O)/C=C/[C@H]1C=CC(=O)[C@@H]1CCCCCCC(=O)O [prostaglandin A1],contraction of the cavernosum,cavernosum,"effective in inducing, promoting, or otherwise facilitating contraction of the cavernosum but are not as active as prostaglandin A2"
"CC(COc1ccccc1)N(CCCl)Cc1ccccc1 (centres unmarked) [Phenoxybenzamine, phenoxybenzamine]",increase in penile length,[1],130%
same,Mean Change in Penile Length (% of Control),"[1]; phenoxybenzamine 3 mg intracavernous alone, 1 min after injection",10%
same,Mean Change in Penile Length (% of Control),"[1]; phenoxybenzamine 3 mg intracavernous alone, 2 min after injection",15%
same,Mean Change in Penile Length (% of Control),"[1]; phenoxybenzamine 3 mg intracavernous alone, 5 min after injection",15%
same,Mean Change in Penile Length (% of Control),"[1]; phenoxybenzamine 3 mg intracavernous alone, 10 min after injection",48%
same,Mean Change in Penile Length (% of Control),"[1]; phenoxybenzamine 3 mg intracavernous alone, 20 min after injection",80%
same,Mean Change in Penile Length (% of Control),"[1]; phenoxybenzamine 3 mg intracavernous alone, 40 min after injection",120%
same,Mean Change in Penile Length (% of Control),"[1]; phenoxybenzamine 3 mg intracavernous alone, 60 min after injection",120%
same,Mean Change in Penile Length (% of Control),"[1]; phenoxybenzamine 3 mg intracavernous alone, 80 min after injection",120%
same,Mean Change in Penile Length (% of Control),"[1]; phenoxybenzamine 3 mg intracavernous alone, 100 min after injection",120%
CCCCC[C@H](O)/C=C/C1=C(C/C=C\CCCC(=O)O)C(=O)CC1 [prostaglandin B2],contraction of the cavernosum,cavernosum,"effective in inducing, promoting, or otherwise facilitating contraction of the cavernosum but are not as active as prostaglandin A2"
CCCCC[C@H](O)/C=C/C1=C(CCCCCCC(=O)O)C(=O)CC1 [prostaglandin B1],contraction of the cavernosum,cavernosum,"effective in inducing, promoting, or otherwise facilitating contraction of the cavernosum but are not as active as prostaglandin A2"
"COc1ccc(Cc2nccc3cc(OC)c(OC)cc23)cc1OC [Papaverine, papaverine]",increase in penile length,[1],130%
same,Mean Change in Penile Length (% of Control),"[1]; papaverine 40 mg intracavernous alone, 1 min after injection",30%
same,Mean Change in Penile Length (% of Control),"[1]; papaverine 40 mg intracavernous alone, 2 min after injection",40%
same,Mean Change in Penile Length (% of Control),"[1]; papaverine 40 mg intracavernous alone, 5 min after injection",52%
same,Mean Change in Penile Length (% of Control),"[1]; papaverine 40 mg intracavernous alone, 10 min after injection",130%
same,Mean Change in Penile Length (% of Control),"[1]; papaverine 40 mg intracavernous alone, 20 min after injection",130%
same,Mean Change in Penile Length (% of Control),"[1]; papaverine 40 mg intracavernous alone, 40 min after injection",130%
same,Mean Change in Penile Length (% of Control),"[1]; papaverine 40 mg intracavernous alone, 60 min after injection",130%
same,Mean Change in Penile Length (% of Control),"[1]; papaverine 40 mg intracavernous alone, 80 min after injection",130%
same,Mean Change in Penile Length (% of Control),"[1]; papaverine 40 mg intracavernous alone, 100 min after injection",130%
